Reference: publication PMC9652372, “Glycolytic flux control by drugging phosphoglycolate phosphatase” (Nature Communications, 2022)
Values after ≈ are worked out from the molar mass of the structure shown. Values joined by “and” are separate entries in the source; they are usually repeats but may differ in a detail not shown here. Equal entries are not always repeated. Where two headings read alike, the source gives them in different places.

Legend:
[1] = molecular target: T1, PGP^WT (Mus musculus, UniProt Q8CHP8); assay: Differential scanning fluorimetry (Thermofluor); assay type: binding
T1 construct: His6 (N, cleaved yes); made in house; host or cells: Escherichia coli BL21 (DE3), pETM11, co-expressed with groES-groEL-tig
T1 sequence (Q8CHP8 1-321): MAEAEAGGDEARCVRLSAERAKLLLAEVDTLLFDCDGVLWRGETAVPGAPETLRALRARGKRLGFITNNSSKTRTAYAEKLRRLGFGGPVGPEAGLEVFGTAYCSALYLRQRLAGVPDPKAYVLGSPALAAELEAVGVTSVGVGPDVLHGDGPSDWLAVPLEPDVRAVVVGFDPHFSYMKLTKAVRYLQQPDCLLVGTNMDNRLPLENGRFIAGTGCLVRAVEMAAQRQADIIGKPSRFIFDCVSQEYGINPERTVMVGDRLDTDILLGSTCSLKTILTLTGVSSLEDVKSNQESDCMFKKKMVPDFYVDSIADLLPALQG

[2] = molecular target: T2, murine PDXP (Mus musculus, UniProt P60487); assay: PDXP activity towards pyridoxal 5'-phosphate (PLP); settings: phosphatase PDXP; species M.m.; substrate PLP; n.s. = no significant inhibition detectable
T2 sequence (P60487 1-292): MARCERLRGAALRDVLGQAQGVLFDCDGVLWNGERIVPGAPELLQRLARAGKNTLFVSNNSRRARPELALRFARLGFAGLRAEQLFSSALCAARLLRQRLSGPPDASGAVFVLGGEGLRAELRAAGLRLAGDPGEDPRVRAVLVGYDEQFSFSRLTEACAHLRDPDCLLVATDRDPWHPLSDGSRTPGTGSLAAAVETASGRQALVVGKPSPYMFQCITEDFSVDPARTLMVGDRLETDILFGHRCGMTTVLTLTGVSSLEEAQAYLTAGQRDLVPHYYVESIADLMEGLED

[3] = molecular target: T3, murine PGP (Mus musculus, UniProt Q8CHP8); assay: IC50 determination, murine PGP, pNPP dephosphorylation
T3 sequence (Q8CHP8 1-321): T1 sequence (Q8CHP8 1-321)

[4] = molecular target: T3, murine PGP; assay: biochemical
[5] = molecular target: T4, PGP (Mus musculus, UniProt Q8CHP8); assay: Steady state kinetics of PG dephosphorylation in presence of CP1-3
T4 sequence (Q8CHP8 1-321): T1 sequence (Q8CHP8 1-321)

[6] = molecular target: T5, murine PDXP/PGP hybrid (Mus musculus, UniProt P60487+Q8CHP8); assay: PG dephosphorylation by PDXP/PGP hybrid protein; assay type: biochemical
T5 construct: consisting of the PGP cap domain (amino acids 114–233) fused to the PDXP core domain; His6 (N, cleaved yes); made in house; host or cells: Escherichia coli BL21 (DE3), pETM11
T5 sequence (P60487 1-100): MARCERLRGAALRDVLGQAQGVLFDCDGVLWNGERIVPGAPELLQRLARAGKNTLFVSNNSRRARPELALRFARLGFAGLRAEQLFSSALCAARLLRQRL
T5 sequence (Q8CHP8 114-233): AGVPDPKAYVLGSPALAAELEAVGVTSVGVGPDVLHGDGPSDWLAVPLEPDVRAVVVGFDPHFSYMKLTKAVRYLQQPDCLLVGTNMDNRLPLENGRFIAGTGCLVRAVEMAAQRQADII
T5 sequence (P60487 208-292): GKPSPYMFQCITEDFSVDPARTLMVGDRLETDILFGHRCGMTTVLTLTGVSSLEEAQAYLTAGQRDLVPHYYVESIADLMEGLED
Description: After centrifugation, cells were resuspended in TNM-2 (100 mM triethanolamine, 500 mM NaCl, 20 mM imidazole, 5 mM MgCl2; pH 7.4). Cleared supernatants were loaded on a HisTrap HP nickel sepharose column in TNM-3 (50 mM triethanolamine, 500 mM NaCl, 20 mM imidazole, 5 mM MgCl2; pH 7.4), and His6-tagged proteins were eluted using a linear gradient of up to 50% TNM-4 (50 mM triethanolamine; 250 mM NaCl; 500 mM imidazole; 5 mM MgCl2; pH 7.4). Peak fractions were pooled, the His6-tag was cleaved, and untagged PDXP or PDXP/PGP was isolated, concentrated and further purified by size exclusion chromatography in TNM-5 (50 mM triethanolamine; 250 mM NaCl; 5 mM MgCl2; pH 7.4). […] Data were analyzed with GraphPad Prism 7.04.

[7] = physchem; settings: organic solvent or mixture
[8] = molecular target: T6, murine PGP-WT (Mus musculus, UniProt Q8CHP8); assay: Isothermal titration calorimetry, PGP-WT; assay type: binding; settings: ITC; for Kd: murine PGP
T6 construct: His6 (N, cleaved yes); made in house; host or cells: Escherichia coli BL21 (DE3), pETM11, co-expressed with groES-groEL-tig
T6 sequence (Q8CHP8 1-321): T1 sequence (Q8CHP8 1-321)
Description: Purified murine PGP-WT or PGP-P127E was dialyzed overnight against ITC buffer (30 mM HEPES, 30 mM NaCl, 5 mM MgCl2, 1 mM tris(2-carboxyethyl)phosphine/TCEP; pH 7.5). All calorimetric measurements were performed at 25 °C on an ITC200 microcalorimeter (GE Healthcare). Experiments were conducted with a fixed concentration of 2% DMSO. […] To reduce the effects of ligand leakage from the syringe during baseline equilibration, the heat release of a single 1.2 μL injection was recorded prior to the actual titration experiment, and discarded during data analysis with Nitpic 2.0.7[45]. To determine background heats of dilution, control experiments of ligand into buffer, buffer into protein and buffer into buffer titrations were performed.

[9] = PG dephosphorylation, increasing CP concentrations

## O=C(Nc1ccccc1C(=O)O)c1ccc(Oc2ccc(C(=O)Nc3ccccc3C(=O)O)cc2)cc1 [CP1]
[1]; Inhibitor 0.244141 µM
  TM: 66.6 °C
[1]; Inhibitor 0.488281 µM
  TM: 66.6 °C
[1]; Inhibitor 0.976562 µM
  TM: 66.8 °C
[1]; Inhibitor 1.95312 µM
  TM: 67.0 °C
[1]; Inhibitor 3.90625 µM
  TM: 67.7 °C
[1]; Inhibitor 7.8125 µM
  TM: 68.6 °C
[1]; Inhibitor 15.625 µM
  TM: 69.6 °C
[1]; Inhibitor 31.25 µM
  TM: 70.5 °C
[1]; Inhibitor 62.5 µM
  TM: 71.0 °C
[1]; Inhibitor 125 µM
  TM: 71.0 °C
[1]; Inhibitor 250 µM
  TM: 70.1 °C
[1]; from 66.4 °C (control conditions)
  increase in the maximal PGP melting temperature: 4.6 °
[2]
  IC50: n.s.
[3]
  IC50: 770 ± 50 nM
[3]; read-out: M.m PGP on pNPP, activity, control = 100.00, CP log[M] -4.60206
  remaining activity at 25 µM: 3.52%
[3]; read-out: M.m PGP on pNPP, activity, control = 100.00, CP log[M] -5
  remaining activity at 10 µM: 6.83%
[3]; read-out: M.m PGP on pNPP, activity, control = 100.00, CP log[M] -5.60206
  remaining activity at […]: 23.4%
[3]; read-out: M.m PGP on pNPP, activity, control = 100.00, CP log[M] -6
  remaining activity at 1 µM: 47.8%
[3]; read-out: M.m PGP on pNPP, activity, control = 100.00, CP log[M] -6.30103
  remaining activity at 0.5 µM: 65%
[3]; read-out: M.m PGP on pNPP, activity, control = 100.00, CP log[M] -6.60206
  remaining activity at […]: 85%
[3]; read-out: M.m PGP on pNPP, activity, control = 100.00, CP log[M] -6.90309
  remaining activity at 0.125 µM: 91.3%
[3]; read-out: M.m PGP on pNPP, activity, control = 100.00, CP log[M] -7.20412
  remaining activity at 0.0625 µM: 99.4%
[3]; read-out: M.m PGP on pNPP, activity, control = 100.00, CP log[M] -7.50515
  remaining activity at 0.03125 µM: 100%
[4]
  IC50: 370 nM and 400 nM
[5]
  mode of PGP inhibition: mixed mode of inhibition
[5]; 0,5 µM CP1, PG 50 µM
  PGP activity: 1.261 µmol Pi/min/mg and 1.442 µmol Pi/min/mg
[5]; 0,5 µM CP1, PG 100 µM
  PGP activity: 3.424 µmol Pi/min/mg and 4.325 µmol Pi/min/mg and 3.784 µmol Pi/min/mg
[5]; 0,5 µM CP1, PG 200 µM
  PGP activity: 7.208 µmol Pi/min/mg and 7.809 µmol Pi/min/mg and 7.689 µmol Pi/min/mg
[5]; 0,5 µM CP1, PG 300 µM
  PGP activity: 11.5358 µmol Pi/min/mg and 12.2568 µmol Pi/min/mg and 11.716 µmol Pi/min/mg
[5]; 0,5 µM CP1, PG 400 µM
  PGP activity: 14.0592 µmol Pi/min/mg and 13.5185 µmol Pi/min/mg
[5]; 0,5 µM CP1, PG 500 µM
  PGP activity: 16.5827 µmol Pi/min/mg and 16.763 µmol Pi/min/mg and 16.2222 µmol Pi/min/mg
[5]; 0,5 µM CP1, PG 600 µM
  PGP activity: 17.6642 µmol Pi/min/mg and 17.3037 µmol Pi/min/mg and 17.4839 µmol Pi/min/mg
[5]; 0,5 µM CP1, PG 700 µM
  PGP activity: 19.4667 µmol Pi/min/mg and 20.1876 µmol Pi/min/mg and 19.2864 µmol Pi/min/mg
[5]; 0,5 µM CP1, PG 800 µM
  PGP activity: 18.0247 µmol Pi/min/mg and 18.9259 µmol Pi/min/mg and 20.0074 µmol Pi/min/mg
[5]; 1 µM CP1, PG 50 µM
  PGP activity: 1.382 µmol Pi/min/mg and 0.901 µmol Pi/min/mg and 0.7809 µmol Pi/min/mg
[5]; 1 µM CP1, PG 100 µM
  PGP activity: 2.763 µmol Pi/min/mg and 2.222 µmol Pi/min/mg and 2.403 µmol Pi/min/mg
[5]; 1 µM CP1, PG 200 µM
  PGP activity: 4.805 µmol Pi/min/mg and 4.745 µmol Pi/min/mg and 4.625 µmol Pi/min/mg
[5]; 1 µM CP1, PG 300 µM
  PGP activity: 7.751 µmol Pi/min/mg and 7.57 µmol Pi/min/mg and 7.39 µmol Pi/min/mg
[5]; 1 µM CP1, PG 400 µM
  PGP activity: 9.373 µmol Pi/min/mg and 8.4716 µmol Pi/min/mg and 9.012 µmol Pi/min/mg
[5]; 1 µM CP1, PG 500 µM
  PGP activity: 11.1753 µmol Pi/min/mg and 10.6346 µmol Pi/min/mg and 10.9951 µmol Pi/min/mg
[5]; 1 µM CP1, PG 600 µM
  PGP activity: 12.437 µmol Pi/min/mg and 11.8963 µmol Pi/min/mg and 13.158 µmol Pi/min/mg
[5]; 1 µM CP1, PG 700 µM
  PGP activity: 13.879 µmol Pi/min/mg and 12.7975 µmol Pi/min/mg
[5]; 1 µM CP1, PG 800 µM
  PGP activity: 14.0592 µmol Pi/min/mg and 13.6988 µmol Pi/min/mg and 12.9778 µmol Pi/min/mg
[5]; 2 µM CP1, PG 50 µM
  PGP activity: 0.6007 µmol Pi/min/mg and 1.021 µmol Pi/min/mg and 0.5406 µmol Pi/min/mg
[5]; 2 µM CP1, PG 100 µM
  PGP activity: 1.562 µmol Pi/min/mg and 1.862 µmol Pi/min/mg and 1.201 µmol Pi/min/mg
[5]; 2 µM CP1, PG 200 µM
  PGP activity: 2.703 µmol Pi/min/mg and 2.643 µmol Pi/min/mg
[5]; 2 µM CP1, PG 300 µM
  PGP activity: 4.867 µmol Pi/min/mg and 5.227 µmol Pi/min/mg and 5.588 µmol Pi/min/mg
[5]; 2 µM CP1, PG 400 µM
  PGP activity: 6.309 µmol Pi/min/mg and 6.128 µmol Pi/min/mg and 5.948 µmol Pi/min/mg
[5]; 2 µM CP1, PG 500 µM
  PGP activity: 7.57 µmol Pi/min/mg and 7.03 µmol Pi/min/mg and 7.21 µmol Pi/min/mg
[5]; 2 µM CP1, PG 600 µM
  PGP activity: 7.751 µmol Pi/min/mg and 7.931 µmol Pi/min/mg
[5]; 2 µM CP1, PG 700 µM
  PGP activity: 7.57 µmol Pi/min/mg and 9.012 µmol Pi/min/mg and 8.291 µmol Pi/min/mg
[5]; 2 µM CP1, PG 800 µM
  PGP activity: 6.849 µmol Pi/min/mg and 8.4716 µmol Pi/min/mg and 8.291 µmol Pi/min/mg
[5]; CP 0.5 µM
  vmax: 39.9 ± 2.9 µmol/min/mg
[5]; CP 1.0 µM
  vmax: 33.6 ± 3.0 µmol/min/mg
[5]; CP 2.0 µM
  vmax: 17.1 ± 2.1 µmol/min/mg
[5]; [9]
  effect on vmax (reduction): ~ 3 fold
  increase of KM: ~ 3 fold
[6]; activity, control = 100, CP log[M] -4.79588
  remaining activity at 16 µM: 22%
[6]; activity, control = 100, CP log[M] -5.39794
  remaining activity at 4 µM: 59.9%
[6]; activity, control = 100, CP log[M] -5.69897
  remaining activity at 2 µM: 72%
[6]; activity, control = 100, CP log[M] -6
  remaining activity at 1 µM: 77.3%
[6]; activity, control = 100, CP log[M] -6.30103
  remaining activity at 0.5 µM: 82.6%
[6]; activity, control = 100, CP log[M] -6.60206
  remaining activity at […]: 92.4%
[6]; activity, control = 100, CP log[M] -6.90309
  remaining activity at 0.125 µM: 90.9%
[6]; activity, control = 100, CP log[M] -7.20412
  remaining activity at 0.0625 µM: 93.9%
[6]; activity, control = 100, CP log[M] -7.80618
  remaining activity at 0.015625 µM: 101%
[6]; phosphatase PDXP/PGP, species M.m., substrate PG
  IC50: 13800 ± 1430 nM
[7]
  solubility: 100 mM (≈ 49.6 mg/mL)
[8]; 25 °C, mean ± S.E.M., n = 3
  Kd: 780 nM
[8]; single replicates
  Kd: 850 nM and 790 nM and 710 nM
  dG: -8.282 kcal/mol and -8.325 kcal/mol and -8.393 kcal/mol
  dH: -5.583 kcal/mol and -4.903 kcal/mol and -5.696 kcal/mol
  dS: 9.052 cal/Mol*K and 11.478 cal/Mol*K and 9.044 cal/Mol*K
